From ChEMBL document CHEMBL4811265, “Structural understanding of 5-(4-hydroxy-phenyl)-N-(2-(5-methoxy-1H-indol-3-yl)-ethyl)-3-oxopentanamide as a neuroprotectant for Alzheimer's disease” (Bioorg Med Chem Lett, 2021)

Experiment: Neuroprotective activity in human MC65 cells cultured in TC-deficient medium assessed as inhibition of TC-deficiency induced cell death by measuring increase in cell viability measured after 72 hrs by MTT assay
Format: functional, cell-based
Details: MC65, 72 h

COc1ccc2[nH]cc(CCNC(=O)CC(=O)CCc3ccc(O)cc3)c2c1 and COc1ccc2[nH]cc(CCNC(=O)CC(=O)CCc3ccc(F)cc3)c2c1 are within 1.5-fold of each other in EC50: 32.6 nM for the first, 33 nM for the second.

Going from O=C(/C=C/c1ccc(O)cc1)CC(=O)NCCc1c[nH]c2ccc(O)cc12 to COc1ccc2[nH]cc(CCNC(=O)CC(=O)/C=C/c3ccc(O)cc3)c2c1, the EC50 falls from 178 nM to 29 nM (6.1-fold). The second is the more potent here.

Compared with C#CCOc1ccc2[nH]cc(CCNC(=O)CC(=O)CCc3ccc(O)cc3)c2c1, Nc1ccc2[nH]cc(CCNC(=O)CC(=O)CCc3ccc(O)cc3)c2c1 is higher in EC50: 32 nM for the first, > 3000 nM for the second. The first is the more potent here.

Compared with COc1ccc2[nH]cc(CCNC(=O)CC(=O)/C=C/c3ccc4c(c3)OCO4)c2c1, COc1ccc2[nH]cc(CCNC(=O)CC(=O)/C=C/c3ccoc3)c2c1 is lower in EC50: > 3000 nM for the first, 336 nM for the second.

COc1ccc2[nH]cc(CCNC(=O)CC(=O)/C=C/c3ccncc3)c2c1 and COc1ccc2[nH]cc(CCNC(=O)CC(=O)/C=C/c3cccnc3)c2c1 cannot be ordered by EC50: > 3000 nM for the first, > 3000 nM for the second.

Going from C#CCOc1ccc2[nH]cc(CCNC(=O)CC3(CCc4ccc(O)cc4)N=N3)c2c1 to COc1ccc2[nH]cc(CCNC(=O)CC3(CCc4ccc(O)cc4)N=N3)c2c1, the EC50 rises from 26.1 nM to 56.2 nM (2.2-fold).

Compared with COc1ccc(CCC(=O)CC(=O)NCCc2c[nH]c3ccc(OC)cc23)cc1, COc1ccc(CCC2(CC(=O)NCCc3c[nH]c4ccc(OC)cc34)N=N2)cc1 is higher in EC50: 490 nM for the first, > 3000 nM for the second.

Compared with [N-]=[N+]=Nc1ccc2[nH]cc(CCNC(=O)CC(=O)CCc3ccc(O)cc3)c2c1, O=C(CCc1ccc(O)cc1)CC(=O)NCCc1c[nH]c2ccc(O)cc12 is 22-fold higher in EC50: 16.5 nM for the first, 364 nM for the second.

First: COc1ccc2[nH]cc(CCNC(=O)CC(=O)/C=C/c3ccco3)c2c1
Second: COc1ccc2[nH]cc(CCNC(=O)CC(=O)/C=C/c3ccc(F)cc3)c2c1
The EC50 of the first is 7-fold higher: 228 nM for the first, 32.8 nM for the second. The second is the more potent here.

First: COc1ccc2[nH]cc(CCNC(=O)CC(=O)/C=C/c3ccc(N(C)C)cc3)c2c1
Second: COc1ccc2[nH]cc(CCNC(=O)C3CC/C(=C\c4ccc(O)cc4)C3=O)c2c1 (racemic)
The EC50 of the first is 7.7-fold higher: 976 nM for the first, 127 nM for the second. The second is the more potent here.

Compared with O=C(CCc1ccc(O)cc1)CC(=O)NCCc1c[nH]c2ccc([N+](=O)[O-])cc12, O=C(CC(O)CCc1ccc(O)cc1)NCCc1c[nH]c2ccc(O)cc12 (racemic) is 54-fold lower in EC50: 500 nM for the first, 9.2 nM for the second. The second is the more potent here.

Compared with COc1ccc2[nH]cc(CCNC(=O)C3CCC/C(=C\c4ccc(O)cc4)C3=O)c2c1 (racemic), COc1ccc2[nH]cc(CCNC(=O)C3CCCC(Cc4ccc(O)cc4)C3=O)c2c1 (racemic) is higher in EC50: 224 nM for the first, > 3000 nM for the second. The first is the more potent here.

For COc1ccc2[nH]cc(CCNC(=O)C3CCC(Cc4ccc(O)cc4)C3=O)c2c1 (racemic), the EC50 was > 3000 nM.
